Several values for one entry are separate records, joined by “and”; a condition that tells them apart may be missing. Equal values may be shown once. Read-outs that look alike come from different tables or passages of the source.
Columns and labels:
PI3K-α = PI3K-α (Homo sapiens, UniProt P42336); test: PI3K-alpha fluorescence polarization assay; conditions: read-out: IC50 PI3Kα
PI3K-γ = PI3K-γ (Homo sapiens, UniProt P48736); test: PI3K-gamma fluorescence polarization assay; conditions: read-out: IC50 PI3Kγ
[1] = system: human prostate LNCap tumor cell line; test: In vitro cell culture growth assay (MTS), LNCap; conditions: read-out: IC50 LNCap
[2] = system: human prostate PC3-mm2 tumor cell line; test: In vitro cell culture growth assay (MTS), PC3-mm2; type: cell-based; conditions: Homo sapiens, PC3MM2, 72 h, three days after drug treatment, read-out: IC50 PC3-mm2
Human mTOR (FLAG-TOR) = Human mTOR (FLAG-TOR) (Homo sapiens, UniProt P42345); test: mTOR kinase assay (DELFIA format, purified enzyme); type: biochemical; conditions: read-out: IC50 mTOR
[3] = system: human breast MDA-MB-361 tumor cell line; test: In vitro cell culture growth assay (MTS), MDA-MB-361; type: cell-based; conditions: Homo sapiens, three days after drug treatment, read-out: IC50 MDA-MB-361
[4] = MTS cell growth assay, three days after drug treatment
[5] = MTS cell growth assay, PC3-mm2 cells
[6] = MDA-MB-361, 72 h, MTS cell growth assay

Chain of PI3K-γ (P48736 whole entry, species assumed): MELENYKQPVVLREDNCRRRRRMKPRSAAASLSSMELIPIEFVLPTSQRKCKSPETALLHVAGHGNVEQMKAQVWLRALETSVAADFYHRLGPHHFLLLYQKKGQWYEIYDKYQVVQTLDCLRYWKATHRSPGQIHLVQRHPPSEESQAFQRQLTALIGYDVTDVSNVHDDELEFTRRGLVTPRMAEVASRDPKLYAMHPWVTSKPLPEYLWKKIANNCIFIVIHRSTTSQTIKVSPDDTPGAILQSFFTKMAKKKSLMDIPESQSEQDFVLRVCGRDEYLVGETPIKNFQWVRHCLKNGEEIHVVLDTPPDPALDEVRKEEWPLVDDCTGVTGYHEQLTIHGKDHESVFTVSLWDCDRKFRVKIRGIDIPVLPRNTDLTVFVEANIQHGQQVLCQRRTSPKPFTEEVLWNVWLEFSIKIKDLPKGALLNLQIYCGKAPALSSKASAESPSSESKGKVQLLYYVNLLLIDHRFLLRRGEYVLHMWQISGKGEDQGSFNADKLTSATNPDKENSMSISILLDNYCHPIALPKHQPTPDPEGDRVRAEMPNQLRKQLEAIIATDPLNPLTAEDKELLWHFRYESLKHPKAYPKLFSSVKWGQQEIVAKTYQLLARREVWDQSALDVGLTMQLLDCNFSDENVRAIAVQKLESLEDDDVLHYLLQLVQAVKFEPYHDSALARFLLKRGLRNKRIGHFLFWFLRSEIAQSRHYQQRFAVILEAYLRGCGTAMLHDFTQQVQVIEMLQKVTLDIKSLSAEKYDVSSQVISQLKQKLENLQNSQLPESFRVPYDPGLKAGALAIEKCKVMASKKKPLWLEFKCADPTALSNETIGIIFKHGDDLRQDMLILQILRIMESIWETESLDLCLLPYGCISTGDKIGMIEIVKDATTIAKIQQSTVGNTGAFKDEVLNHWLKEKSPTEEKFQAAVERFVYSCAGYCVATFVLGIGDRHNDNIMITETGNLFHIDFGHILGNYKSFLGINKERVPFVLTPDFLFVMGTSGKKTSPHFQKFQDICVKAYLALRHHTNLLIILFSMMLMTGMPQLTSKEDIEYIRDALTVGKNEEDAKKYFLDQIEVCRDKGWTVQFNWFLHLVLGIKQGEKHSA
Chain of Human mTOR (FLAG-TOR) (P42345 1360-2549 limits assumed): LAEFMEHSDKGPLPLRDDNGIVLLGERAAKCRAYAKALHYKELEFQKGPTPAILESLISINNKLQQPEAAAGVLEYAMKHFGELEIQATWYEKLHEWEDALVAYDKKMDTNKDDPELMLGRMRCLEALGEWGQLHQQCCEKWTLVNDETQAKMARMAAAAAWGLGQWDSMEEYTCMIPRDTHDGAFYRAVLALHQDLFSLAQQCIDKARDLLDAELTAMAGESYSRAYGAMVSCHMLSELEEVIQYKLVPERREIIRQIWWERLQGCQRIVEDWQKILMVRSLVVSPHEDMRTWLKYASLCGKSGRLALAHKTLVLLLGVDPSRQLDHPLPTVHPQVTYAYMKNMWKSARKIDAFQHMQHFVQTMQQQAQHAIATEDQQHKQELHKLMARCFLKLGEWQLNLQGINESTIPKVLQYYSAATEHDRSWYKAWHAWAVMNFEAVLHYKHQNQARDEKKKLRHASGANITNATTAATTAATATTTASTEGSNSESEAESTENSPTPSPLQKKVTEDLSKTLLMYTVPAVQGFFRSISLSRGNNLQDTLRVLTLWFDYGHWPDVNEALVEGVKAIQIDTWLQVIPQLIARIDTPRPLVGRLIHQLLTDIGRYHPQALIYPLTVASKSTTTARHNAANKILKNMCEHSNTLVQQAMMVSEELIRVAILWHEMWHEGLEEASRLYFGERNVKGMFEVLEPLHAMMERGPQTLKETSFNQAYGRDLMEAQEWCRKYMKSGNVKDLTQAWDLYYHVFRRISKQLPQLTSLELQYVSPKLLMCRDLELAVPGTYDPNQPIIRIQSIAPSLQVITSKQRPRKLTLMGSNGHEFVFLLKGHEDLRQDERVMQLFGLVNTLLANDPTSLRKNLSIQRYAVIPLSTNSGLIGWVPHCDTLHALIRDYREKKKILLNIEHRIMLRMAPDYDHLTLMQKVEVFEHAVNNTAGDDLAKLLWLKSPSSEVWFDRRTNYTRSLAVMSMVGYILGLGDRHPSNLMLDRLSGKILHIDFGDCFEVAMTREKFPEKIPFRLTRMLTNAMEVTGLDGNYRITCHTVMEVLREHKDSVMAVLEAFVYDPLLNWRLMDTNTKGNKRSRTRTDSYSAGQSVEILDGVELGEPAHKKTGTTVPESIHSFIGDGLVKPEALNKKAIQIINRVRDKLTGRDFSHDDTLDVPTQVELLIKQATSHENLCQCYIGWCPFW
Chain of PI3K-α (P42336 whole entry, species assumed): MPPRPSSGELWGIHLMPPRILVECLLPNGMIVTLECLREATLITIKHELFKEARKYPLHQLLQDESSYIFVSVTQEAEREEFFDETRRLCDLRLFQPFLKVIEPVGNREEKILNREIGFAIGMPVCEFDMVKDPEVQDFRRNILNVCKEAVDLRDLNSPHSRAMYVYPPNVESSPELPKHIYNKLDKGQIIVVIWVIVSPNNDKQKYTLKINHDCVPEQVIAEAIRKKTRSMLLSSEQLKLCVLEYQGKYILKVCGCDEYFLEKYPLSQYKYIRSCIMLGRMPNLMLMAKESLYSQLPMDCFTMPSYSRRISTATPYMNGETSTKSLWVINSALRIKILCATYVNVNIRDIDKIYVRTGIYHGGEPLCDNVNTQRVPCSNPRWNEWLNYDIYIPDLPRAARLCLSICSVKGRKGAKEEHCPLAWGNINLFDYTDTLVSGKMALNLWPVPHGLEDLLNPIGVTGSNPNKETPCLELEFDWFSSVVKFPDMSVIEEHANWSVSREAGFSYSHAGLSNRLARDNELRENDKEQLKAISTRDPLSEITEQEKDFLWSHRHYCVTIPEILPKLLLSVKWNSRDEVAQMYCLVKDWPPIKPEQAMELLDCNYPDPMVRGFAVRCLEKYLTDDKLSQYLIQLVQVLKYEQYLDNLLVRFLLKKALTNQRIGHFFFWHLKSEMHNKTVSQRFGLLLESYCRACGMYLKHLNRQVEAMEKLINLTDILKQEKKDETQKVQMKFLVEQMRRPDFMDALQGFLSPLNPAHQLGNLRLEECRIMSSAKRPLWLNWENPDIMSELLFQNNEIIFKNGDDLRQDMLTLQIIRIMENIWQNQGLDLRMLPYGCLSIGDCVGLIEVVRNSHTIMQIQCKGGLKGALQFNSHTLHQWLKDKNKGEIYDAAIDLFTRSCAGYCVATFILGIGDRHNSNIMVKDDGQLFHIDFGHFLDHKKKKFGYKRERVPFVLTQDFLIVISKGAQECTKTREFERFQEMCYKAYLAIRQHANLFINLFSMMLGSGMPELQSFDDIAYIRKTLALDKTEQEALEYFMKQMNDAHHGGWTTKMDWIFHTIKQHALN
Chain of PI3K-α (P27986 whole entry partner, species assumed): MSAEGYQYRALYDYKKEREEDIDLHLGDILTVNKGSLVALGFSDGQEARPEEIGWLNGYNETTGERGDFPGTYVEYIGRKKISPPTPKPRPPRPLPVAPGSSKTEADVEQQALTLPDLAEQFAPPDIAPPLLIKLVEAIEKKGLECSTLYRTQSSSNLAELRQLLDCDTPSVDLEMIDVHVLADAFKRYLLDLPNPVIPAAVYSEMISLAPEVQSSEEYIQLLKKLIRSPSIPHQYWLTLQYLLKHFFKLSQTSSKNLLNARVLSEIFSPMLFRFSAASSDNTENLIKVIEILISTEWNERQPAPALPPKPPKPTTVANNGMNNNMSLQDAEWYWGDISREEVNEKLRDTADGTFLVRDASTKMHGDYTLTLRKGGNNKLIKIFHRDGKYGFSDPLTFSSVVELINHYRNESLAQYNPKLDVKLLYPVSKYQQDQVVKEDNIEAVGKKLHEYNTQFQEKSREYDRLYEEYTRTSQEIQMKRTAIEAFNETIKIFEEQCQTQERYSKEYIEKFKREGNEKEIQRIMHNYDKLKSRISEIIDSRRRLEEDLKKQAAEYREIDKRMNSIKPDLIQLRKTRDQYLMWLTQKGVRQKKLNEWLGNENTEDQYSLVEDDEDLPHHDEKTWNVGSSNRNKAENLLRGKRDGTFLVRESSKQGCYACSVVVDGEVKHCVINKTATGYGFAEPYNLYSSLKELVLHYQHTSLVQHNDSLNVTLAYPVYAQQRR

Row | Compound | IC50 (PI3K-α) [nM] | IC50 (PI3K-γ) [nM] | IC50 ([1]; Homo sapiens, LNCaP, 72 h) [nM] | IC50 (Human mTOR (FLAG-TOR)) | other results
1 | O=C(Nc1ccc(-c2nc(N3CC4CCC(C3)O4)nc(N3CC4CNCC(C3)O4)n2)cc1)Nc1cccnc1 [Example 235, 1-{4-[4-(8-oxa-3-azabicyclo[3.2.1]oct-3-yl)-6-(9-oxa-3,7-diazabicyclo[3.3.1]non-3-yl)-1,3,5-triazin-2-yl]phenyl}-3-pyridin-3-ylurea] | 3210 | 4110 | 7900 |  | 
2 | O=C(Nc1ccncc1)Nc1ccc(-c2nc(OCCN3CCCCC3)nc(N3CC4CCC(C3)O4)n2)cc1 [Example 144, 1-{4-[4-(8-oxa-3-azabicyclo[3.2.1]oct-3-yl)-6-(2-piperidin-1-ylethoxy)-1,3,5-triazin-2-yl]phenyl}-3-pyridin-4-ylurea] |  |  | 1500 |  | 
3 | CC(C)N1CCN(c2ccc(NC(=O)Nc3ccc(-c4nc(C5CCOCC5)nc(N5C6CCC5COC6)n4)cc3)cc2)CC1 [Example 435, 1-(4-(4-(3-oxa-8-azabicyclo[3.2.1]octan-8-yl)-6-(tetrahydro-2H-pyran-4-yl)-1,3,5-triazin-2-yl)phenyl)-3-(4-(4-isopropylpiperazin-1-yl)phenyl)urea] |  | 4600 | 4 |  | 
4 | CN1CCN(c2ccc(NC(=O)Nc3ccc(-c4nc(N5C[C@H]6C[C@@H]5CO6)nc(N5C[C@H]6C[C@@H]5CO6)n4)cc3)cc2)CC1 [Example 314, 1-{4-[4,6-di-(1R,4R)-2-oxa-5-azabicyclo[2.2.1]hept-5-yl-1,3,5-triazin-2-yl]phenyl}-3-[4-(4-methylpiperazin-1-yl)phenyl]urea] | 1820 | 10000 |  |  | IC50 [1, 4]: 550 nM
5 | CNC(=O)Nc1ccc(-c2nc(Nc3ccc(N4CCN(C)CC4)cc3)nc(N3CC4CCC(C3)O4)n2)cc1 [Example 317, 1-methyl-3-{4-[4-{[4-(4-methylpiperazin-1-yl)phenyl]amino}-6-(8-oxa-3-azabicyclo[3.2.1]oct-3-yl)-1,3,5-triazin-2-yl]phenyl}urea] | 216 | 6830 | 120 |  | 
6 | CNC(=O)Nc1ccc(-c2nc(N3CC4CCC(C3)O4)nc(N3CC4CNCC(C3)O4)n2)cc1 [Example 234, 1-methyl-3-{4-[4-(8-oxa-3-azabicyclo[3.2.1]oct-3-yl)-6-(9-oxa-3,7-diazabicyclo[3.3.1]non-3-yl)-1,3,5-triazin-2-yl]phenyl}urea] | 4530 | 9530 | 10000 |  | 
7 | CN1CCN(c2ccc(NC(=O)Nc3ccc(-c4nc(N5C6COCC5COC6)nc(N5C6COCC5COC6)n4)cc3)cc2)CC1 [Example 823, 1-[4-(4,6-di-3,7-dioxa-9-azabicyclo[3.3.1]non-9-yl-1,3,5-triazin-2-yl)phenyl]-3-[4-(4-methylpiperazin-1-yl)phenyl]urea] | 661 | 2790 | 55 |  | 
8 | O=C(Nc1ccc(-c2nc(N3C4CCC3COC4)nc(N3C4CCC3COC4)n2)cc1)N1CCNCC1 [Example 286, N-[4-(4,6-di-3-oxa-8-azabicyclo[3.2.1]oct-8-yl-1,3,5-triazin-2-yl)phenyl]piperazine-1-carboxamide] | 4200 |  | 32000 |  | 
9 | 1-(4-{4-[(1-methylethyl)amino]-6-(8-oxa-3-azabicyclo[3.2.1]oct-3-yl)-1,3,5-triazin-2-yl}phenyl)-3-[6-(4-methylpiperazin-1-yl)pyridin-3-yl]urea [Example 216] | 521 | 7030 |  |  | IC50 [1, 4]: 50 nM
10 | CC(C)N1CCN(C(=O)c2ccc(NC(=O)Nc3ccc(-c4nc(C5CCOCC5)nc(N5C6CCC5COC6)n4)cc3)cc2)CC1 [Example 439, 1-(4-(4-(3-oxa-8-azabicyclo[3.2.1]octan-8-yl)-6-(tetrahydro-2H-pyran-4-yl)-1,3,5-triazin-2-yl)phenyl)-3-(4-(4-isopropylpiperazine-1-carbonyl)phenyl)urea] |  |  | 1 |  | 
11 | O=C(Nc1ccncc1)Nc1ccc(-c2nc(N3C4CCC3COC4)nc(N3[C@H](CO)CC[C@@H]3CO)n2)cc1 [Example 347, 1-(4-{4-[(2R,5S)-2,5-bis(hydroxymethyl)pyrrolidin-1-yl]-6-(3-oxa-8-azabicyclo[3.2.1]oct-8-yl)-1,3,5-triazin-2-yl}phenyl)-3-pyridin-4-ylurea] | 796 | 8440 | 9 |  | 
12 | O=CCCc1nc(-c2ccc(NC(=O)Nc3ccncc3)cc2)nc(N2CCOCC2)n1 [Example 280, 1-{4-[4-morpholin-4-yl-6-(3-oxopropyl)-1,3,5-triazin-2-yl]phenyl}-3-pyridin-4-ylurea] | 5 | 29 |  | 4 nM and 4.45 nM | IC50 [2, 5]: 404 nM; IC50 ([2]; MTS cell growth assay): 404 nM; IC50 (PI3K-α; listed as 737): 7 nM; IC50 (PI3K-γ; listed as 737): 30 nM; IC50 [3, 6]: 176 nM
13 | CN(C)CCOc1ccc(NC(=O)Nc2ccc(-c3nc(N4CCOCC4)nc(N4C5CCC4COC5)n3)cc2)cc1 [Example 266, 1-{4-[2-(dimethylamino)ethoxy]phenyl}-3-{4-[4-morpholin-4-yl-6-(3-oxa-8-azabicyclo[3.2.1]oct-8-yl)-1,3,5-triazin-2-yl]phenyl}urea] | 16 | 93 |  | 1.7 nM and 1.85 nM | IC50 [2, 5]: < 31 nM; IC50 (PI3K-α; listed as 729): 14.5 nM; IC50 (PI3K-γ; listed as 729): 100 nM; IC50 ([3]; 72 h, MTS cell growth assay, MDA-MB-361 cells): < 31 nM
14 | O=C(Nc1ccc(C(=O)N2CCNCC2)cc1)Nc1ccc(-c2nc(N3CCOCC3)nc(N3C4COCC3COC4)n2)cc1 [Example 772, 1-{4-[4-(3,7-dioxa-9-azabicyclo[3.3.1]non-9-yl)-6-morpholin-4-yl-1,3,5-triazin-2-yl]phenyl}-3-[4-(piperazin-1-ylcarbonyl)phenyl]urea] | 0.8 | 9.5 |  | 0.29 nM | IC50 [2, 5]: 15 nM; IC50 ([3]; MDA-MB-361, 72 h, MTS cell growth assay, MDA-MB-361 cells): 5 nM
15 | CN(C)CCN(C)C(=O)c1ccc(NC(=O)Nc2ccc(-c3nc(N4CCOCC4)nc(N4CC5CCC4CO5)n3)cc2)cc1 (stereo not drawn) [Example 816, N-[2-(dimethylamino)ethyl]-N-methyl-4-[({4-[4-morpholin-4-yl-6-(2-oxa-5-azabicyclo[2.2.2]oct-5-yl)-1,3,5-triazin-2-yl]phenyl}carbamoyl)amino]benzamide] | 2.4 | 26 |  | 1.06 nM | IC50 ([2]; PC3-mm2 cells, MTS): 11 nM; IC50 ([3]; 72 h, MDA-MB-361 cells, MTS): 2 nM
16 | O=C(Nc1ccc(C(=O)N2CCC(N3CCCC3)CC2)cc1)Nc1ccc(-c2nc(N3CCOCC3)nc(N3CCOCC3)n2)cc1 [Example 74, 1-(4-(4,6-dimorpholino-1,3,5-triazin-2-yl)phenyl)-3-(4-(4-(pyrrolidin-1-yl)piperidine-1-carbonyl)phenyl)urea] | 0.4 | 8 |  | 1 nM and 0.63 nM | IC50 ([2]; MTS cell growth assay): 8.33 nM; IC50 (PI3K-α; listed as 179): 1 nM; IC50 (PI3K-γ; listed as 179): 13 nM; IC50 [3, 6]: < 3 nM
17 | CCc1nc(-c2ccc(NC(=O)Nc3ccc(C(=O)NCCN(C)C)cc3)cc2)nc(N2CCOCC2)n1 [Example 237, N-[2-(dimethylamino)ethyl]-4-({[4-(4-ethyl-6-morpholin-4-yl-1,3,5-triazin-2-yl)phenyl]carbamoyl}amino)benzamide] | 2 | 23 |  | 3 nM | IC50 ([2]; MTS cell growth assay): 69 nM; IC50 [3, 6]: 28 nM
18 | O=C(Nc1ccncc1)Nc1ccc(-c2nc(N3CCOCC3)nc(N3C[C@@H]4C[C@H]3CO4)n2)cc1 [Example 189, 1-(4-{4-morpholin-4-yl-6-[(1S,4S)-2-oxa-5-azabicyclo[2.2.1]hept-5-yl]-1,3,5-triazin-2-yl}phenyl)-3-pyridin-4-ylurea] | 19 | 203 |  | 28 nM | IC50 ([2]; MTS cell growth assay): 99 nM; IC50 [3, 6]: 84 nM
19 | CCCCc1nc(-c2ccc(NC(=O)Nc3ccc(C(=O)N4CCC(Cc5ccccc5)CC4)cc3)cc2)nc(N2CCOCC2)n1 [Example 270, 1-{4-[(4-benzylpiperidin-1-yl)carbonyl]phenyl}-3-[4-(4-butyl-6-morpholin-4-yl-1,3,5-triazin-2-yl)phenyl]urea] | 68 | 318 |  | 160 nM | IC50 ([2]; MTS cell growth assay): 953 nM; IC50 [3, 6]: 397 nM
20 | CCN1CCN(C(=O)c2ccc(NC(=O)Nc3ccc(-c4nc(N5CCOCC5)nc(N5CC6CCC5CO6)n4)cc3)cc2)CC1 (stereo not drawn) [Example 812, 1-{4-[(4-ethylpiperazin-1-yl)carbonyl]phenyl}-3-{4-[4-morpholin-4-yl-6-(2-oxa-5-azabicyclo[2.2.2]oct-5-yl)-1,3,5-triazin-2-yl]phenyl}urea] | 2.8 | 30.5 |  | 2 nM | IC50 ([2]; PC3-mm2 cells, MTS): 23 nM; IC50 ([3]; MDA-MB-361, 72 h, MDA-MB-361 cells, MTS): 3 nM
21 | CCCCc1nc(-c2ccc(NC(=O)Nc3ccc(C(=O)N4CCN(C)CC4)cc3)cc2)nc(N2CCOCC2)n1 [Example 232, 1-[4-(4-butyl-6-morpholin-4-yl-1,3,5-triazin-2-yl)phenyl]-3-{4-[(4-methylpiperazin-1-yl)carbonyl]phenyl}urea] | 6 | 37 |  | 83 nM | IC50 ([2]; MTS cell growth assay): 177 nM; IC50 [3, 6]: 38 nM

From patent US20090304692A1, “TRIAZINE COMPOUNDS AS PI3 KINASE AND MTOR INHIBITORS” (Wyeth, priority 2008, published 2009)
